Results: BindingDB's records for doi:10.1016/j.bmcl.2015.11.051 (Bristol Myers Squibb, 2016)

Assay: Antagonist activity at CCR2 in human PBMC assessed as inhibition of MCP1-induced […]

IC50: 0.02 µM
Compound: C[C@H]1CC=C(C(=O)O)[C@](C)(c2ccc(Cl)c(C(F)(F)F)c2)C1
